The values that follow are results of earlier work, collected in US7678762B2, “Methods for reducing the risk of hypoglycemia” (DiObex, Inc., priority 2002, dated 2010).

For series [1] the following is noted: relative to normal glucagon.
The conditions of series [2]: relative to normal glucagon. This is another data set of the same source.

As for “glucagon variant with a Phe at position 18: glucagon variant with a Phe at position 18”, the binding affinity in series [1] was 4.7%. Also, the relative potency in series [2] is recorded as 0.9%.
In the case of “variant glucagon Lys 17 and 18, Glu 21: variant glucagon with a Lys substitution at positions 17 and 18 and a Glu substitution at position 21 (Sturm et al.) (HSQGTFTSDYSKYLDSKKAQEFVQWLMNT; Glucagon; UniProt P01275 53-81, looked up, variant R17K R18K D21E)”, in series [1], the binding affinity is 500%. The relative potency in series [2] was 700%.
Regarding “variant glucagon amide Lys 17: variant glucagon amide with only a Lys substitution at position 17”, the binding affinity in series [1] is 220%. Further, the relative potency in series [2] is on record as 230%.
